Values of other authors as cited in patent US10314832B2, “β- and γ-diketones and γ-hydroxyketones as Wnt/β-catenin signaling pathway activators” (Samumed, LLC, priority 2010, dated 2019).

B1: Wnt3a: Wnt ligand protein; soluble peptide agonist of LRP5 and Fzd co-receptors (protein, UniProt P56704 19-352, looked up)
Protein Wnt-3a: SYPIWWSLAVGPQYSSLGSQPILCASIPGLVPKQLRFCRNYVEIMPSVAEGIKIGIQECQHQFRGRRWNCTTVHDSLAIFGPVLDKATRESAFVHAIASAGVAFAVTRSCAEGTAAICGCSSRHQGSPGKGWKWGGCSEDIEFGGMVSREFADARENRPDARSAMNRHNNEAGRQAIASHMHLKCKCHGLSGSCEVKTCWWSQPDFRAIGDFLKDKYDSASEMVVEKHRESRGWVETLRPRYTYFKVPTERDLVYYEASPNFCEPNPETGSFGTRDRTCNVSSHGIDGCDLLCCGRGHNARAERRREKCRCVFHWCCYVSCQECTRVYDVHTCK

Key:
[1] = topical solution, patients with age-related hair loss; cited from earlier work
[2] = test system: dedifferentiated Müller glia; settings: photoreceptor-damaged retina; cited from earlier work

| Molecule | patients with moderate regrowth of hair [1] | increase in proliferation of dedifferentiated Müller glia [2] [fold] |
| --- | --- | --- |
| Nc1cc(N2CCCCC2)nc(N)[n+]1[O-] [minoxidil] | less than 40% |  |
| B1 |  | > 20 |
